Data set [1] has as its system patients with central sleep apnea. Put plainly: Clinical study in central sleep apnea. It counts as in vivo, human. Particulars: s.c. 100-600 μg, 2 months. The method, then: Central Sleep Apnea: 10 patients with central sleep apnea associated with high ventilatory responses to carbon dioxide, are treated with a compound of the invention for 2 months. Sleep recordings, ventilatory control studies (blood gases) and endocrinological controls are performed before, on the first night, at 2 weeks and at 2 months of therapy. In this study, the compounds of the invention, e.g. Compound A, reduce the abnormal high ventilatory responses and the number of central sleep apnea episodes, when administered s.c. at a dose of 100-600 μg.

Data set [2] relates to patients with predominantly obstructive sleep apnea. Nature of the data set: Clinical study in obstructive sleep apnea. Particulars: s.c. 100-600 μg, 2 months. In kind it is in vivo, human. On the procedure:
Obstructive Sleep Apnea: 10 patients with predominantly obstructive sleep apnea are treated with Compound A for 2 months. Sleep recordings, blood gases evaluation and endocrinological controls are performed before, on the first night and at 2 months of therapy. In this study, the compounds of the invention, e.g. Compound A, reduce the number of obstructive sleep apnea episodes when administered s.c. at a dose of 100-600 μg.

Data set [3] in a line: Tolerability at dosages required for use. It counts as in vivo. Particulars: free form or pharmaceutically acceptable salt form.

This is an account of results in US20060052289A1, “Use of somatostatin analogs in sleep apnea” (priority 2003, published 2006).

Take “cyclo[{4-(NH2—C2H4—NH—CO—O—)Pro}-Phg-DTrp-Lys-Tyr(4-Bzl)-Phe] [Compound A]”: in data set [1], the “abnormal high ventilatory responses” value was “reduce” and the “number of central sleep apnea episodes” value is “reduce”. The “number of obstructive sleep apnea episodes” value in data set [2] was “reduce”. In addition, the tolerability result in data set [3] is listed as “well tolerated”.
